Tests used:
[1] = system: prolonged PGE2-induced hyperalgesia; experiment: Chronic inflammatory pain model: prolonged hyperalgesia in carrageenan-sensitized rats (Randall-Selitto paw-withdrawal test); format: in vivo
Excerpt: In order to investigate the role, if any, of PKCε in chronic inflammatory pain, the following model system for chronic inflammatory pain was developed. Rats received intradermal hind paw injections of carrageenan, an inflammatory agent. […] This was considered an acute response to the carrageenan-induced inflammation. Although administration of Prostaglandin E2 ("PGE2"), 5-hydroxytryptamine ("5-HT," serotonin) or CGS-21680 (an adenosine A2-selective receptor agonist) normally causes untreated rats (that is, rats that have not received carrageenan injections) to experience hyperalgesia lasting up to 6 hours, the hyperalgesia experienced by carrageenan-sensitized rats following administration of any one of these substances lasted up to 24 hours.
The prolonged PGE2-induced hyperalgesia normally seen in carrageenan-sensitized rats was inhibited by administration of BIM or εV1-2.
To examine whether protein kinase C modulates the processes by which a brief inflammatory event causes prolonged hyperalgesia many days later, rats received carrageenan and 1µg BIM injections at the same time. Hyperalgesia was measured 72 hours later, when the rats were treated PGE2. […] Therefore, administration of an inhibitor of PKC either at approximately the same time as the inflammatory agent giving rise to chronic, prolonged hyperalgesia or at about the same time as the hyperalgesia-inducing stimulus can lessen such chronic hyperalgesia.

[2] = system: PGE2-induced hyperalgesia; experiment: PGE2-induced mechanical hyperalgesia, paw-withdrawal threshold; format: in vivo, rat; conditions: same dose as for epinephrine: BIM 1 µg, WIPTIDE 100 ng
Protocol: The roles of PKC, protein kinase A ("PKA") and the µ-opioid receptor in mediating epinephrine-induced hyperalgesia were assessed by measuring the effects of: Rp-adenosine 3', 5'-cyclic monophosphate ("Rp-cAMPs") and WIPTIDE, both inhibitors of PKA; SQ22536, an inhibitor of adenylyl cyclase, an enzyme activated by PKA; bisindolymaleimide ("BIM"), a nonselective inhibitor of PKC isozymes; and [D-Ala^2,N-Me-Phe^4,Gly^5-ol]-enkephalin ("DAMGO"), p-opioid receptor agonist. The dose for each inhibitor was 1µg, except for WIPTIDE, which was administered in a 100ng dose. DAMGO was co-injected with epinephrine whereas the other inhibitors were applied 15 minutes prior to epinephrine injection. […] TABLE 1: Percentage decrease in nociceptive threshold in response to epinephrine, PGE2 or isoproterenol (each 100 ng) and effects of DAMGO, SQ22536, BIM, Rp-cAMPs (all 1 µg) or WIPTIDE (0.1 µg). A large numeric value means more hyperalgesia.
For mechanical nociceptive testing, the nociceptive flexion reflex was quantified using an Ugo Basile analgesymeter that applies a constantly increasing force measured in grams (Stoelting, Chicago, IL; K. O. Aley, J. D. Levine, J. Neurosci. 17, 8018-23 (1997)). The mean basal mechanical threshold for rats used in these experiments was 105.3+/-2.8 grams. The effects of hyperalgesia-inducing agents epinephrine (100ng) and PGE2 (100ng) on mechanical nociceptive thresholds were determined by measuring paw withdrawal frequencies at 15, 20, and 25 minutes after administration of the hyperalgesic agent and then calculating the mean of these three readings.

[3] = system: isoproterenol-induced hyperalgesia; experiment: Isoproterenol-induced mechanical hyperalgesia, paw-withdrawal threshold; format: in vivo, rat; conditions: intradermal; BIM 1 µg, WIPTIDE 100 ng; propranolol dose not given
Protocol: To examine the role of β-AR in epinephrine-induced hyperalgesia, propranolol, a β-AR antagonist, and isoproterenol, a selective β-AR agonist, were administered by intradermal injection.
The roles of PKC, protein kinase A ("PKA") and the µ-opioid receptor in mediating epinephrine-induced hyperalgesia were assessed by measuring the effects of: Rp-adenosine 3', 5'-cyclic monophosphate ("Rp-cAMPs") and WIPTIDE, both inhibitors of PKA; SQ22536, an inhibitor of adenylyl cyclase, an enzyme activated by PKA; bisindolymaleimide ("BIM"), a nonselective inhibitor of PKC isozymes; and [D-Ala^2,N-Me-Phe^4,Gly^5-ol]-enkephalin ("DAMGO"), p-opioid receptor agonist. The dose for each inhibitor was 1µg, except for WIPTIDE, which was administered in a 100ng dose. […] A large numeric value means more hyperalgesia.

TTX-RINa = format: cell-based, rat
[4] = system: diabetes-induced hyperalgesia; experiment: Streptozotocin diabetes model, diabetes-induced hyperalgesia to mechanical stimuli; format: in vivo, Sprague-Dawley rats; conditions: four weeks after streptozotocin 70 mg/kg; intradermal sterile water then 1 µg
Protocol: Persons with uncontrolled or poorly controlled diabetes frequently experience hyperalgesia. The role of PKCε in diabetic neuropathy was examined in a model of diabetes in which male Sprague-Dawley rats receive subcutaneous injection of streptozotocin (70 mg/kg), a pancreatic β-cell toxin. These rats display hyperglycemia and glucosuria within 24 hours after the injection and show decreased nociceptive thresholds in response to mechanical stimuli administered by Ugo Basile analgesymeter in the hind paw after one week (Ahlgren, S.C. et al, J. Neurophysiology, 68, 2077-2085 (1992); Ahlgren, S.C. and Levine, J.D., Neuroscience 52, 1049-1055 (1993)). Four weeks after the streptozotocin injection, each rat received no treatment (n=8) or an intradermal injection of sterile water followed by a intradermal injections of (1) 1 µg bisindolymaleimide, a protein kinase C inhibitor (n=4; labeled "BIM" on Figure 12B), (2) 1 µg εV1-2, a PKCε inhibitory peptide (n=8; labeled "PKCεI" on Figure 12B), or (3) 1 µg S-VεV1-2, a scrambled version of the εV1-2 peptide (n=4; labeled "PCKε1 SCR" on Figure 12B) and were subsequently exposed to mechanical stimuli.

[5] = 1µg at the same time as carrageenan
[6] = 1µM epinephrine with 100µM BIM v. epinephrine alone

SMILES: CN(C)CCCn1cc(C2=C(c3c[nH]c4ccccc34)C(=O)NC2=O)c2ccccc21 [BIM, bisindolymaleimide I]
- effect on acute hyperalgesia normally induced by carrageenan exposure [1, 5]: attenuated
- effect on prolonged hyperalgesia on PGE2 72 or more hours after carrageenan exposure [1, 5]: attenuated
- effect on prolonged PGE2-induced hyperalgesia in carrageenan-sensitized rats ([1]; 1µg several days after the carrageenan injection, then PGE2): inhibited
- effect on PGE2-induced hyperalgesia [2]: had no effect
- effect on isoproterenol-induced hyperalgesia [3]: significantly attenuated
- mean peak current increase (TTX-RINa; [6]): 32%
- number of neurons responsive to epinephrine (TTX-RINa; [6]): 5 out of 11
- effect on epinephrine-induced potentiation of TTX-RINa (TTX-RINa; 1µM epinephrine, 2µM propranolol, 5µM phentolamine, 100µM Rp-cAMPs, 100µM BIM): significantly decreased
- effect on diabetes-induced decrease in nociceptive threshold [4]: markedly reduced

— patent publication EP1093379B1, “USE OF INHIBITORS OF PROTEIN KINASE C EPSILON TO TREAT PAIN” (The Regents of the University of California, priority 1998, dated 2007)
